The text below walks through data of patent US20080108573A1, “Compositions And Methods For Treatment Of Cardiovascular Disease” (priority 2004, published 2008).

“Also recorded” adds a separate entry of the source.

Data set [1] concerns SHR and WKY rats on low/high salt diet, L-NAME plus high salt diet, or streptozotocin induced diabetes. Briefly: Preliminary four-week VIP infusion in rat models of myocardial fibrosis (Example 1). Conditions: VIP 7.2 nmol/kg/day via Alzet mini pump, four weeks, vs vehicle. The data set is classed as in vivo. The source says: Further preliminary experiments have been conducted on a number of animal models, which encompass a range of fibrous tissue replacement, varying from mild to moderate to severe. The experiments on the animal models encompassed a variety of aetiologies (alone and in combination) and a range of levels of induced fibrosis. For these experiments two types of rats were used, spontaneously hypertensive rats (SHR) and normotensive control Wistar-Kyoto rats (WKY). The WKY rats were given: 1) low salt diet, 2) high salt diet, or 3) L-NAME (ω-monomethyl-nitro-L-arginine; 10 mg/kg/day) plus high salt diet. The SHR rats were given low or high salt diets. The effect of VIP infusion in diabetic heart disease was also studied in the WKY rate with streptozotocin induced diabetes.
In each treatment group, rats were randomised to VIP or vehicle infusion (n=24 in each group) for four weeks. VIP was administered via Alzet mini pump at a rate of 7.2 nmol/kg/day.
After four weeks, the rats were anaesthetised and the hearts were harvested. Myocardial VIP concentrations and myocardial fibrosis were quantitated.

The test system of data set [2] is WKY rat fed a high salt diet; WKY rat fed a high salt diet and given L-NAME. Briefly: Effect of VIP infusion on fibrosis in animal models of fibrosis (Example 3). Format: in vivo. The following applies: VIP 5 pmol/kg/min, 4 weeks via Alzet minipump; WKY high salt diet and high salt diet plus L-NAME (FIGS. 2 and 3). How it is done:
Three animal models of myocardial fibrosis were used (animals obtained from Australian Animal Resources, Perth, Western Australia, Australia) • i) WKY rat fed a high salt diet • ii) WKY rat fed a high salt diet and given L-NAME (ω-monomethyl-nitro-L-arginine, Sigma Chemical Co.) 10 mg/kg/day in the drinking water • iii) WKY rats with diabetes induced by streptozotocin injection 60 mg/kg
In each model the rats were randomised to VIP (H-[…]NH2, obtained from Auspep, Australia) or vehicle control (Haemaccel, Aventis) infusion for 4 weeks via Alzet minipump (n=6-8 each experimental group). The dose of VIP was 5 pmol/kg/min.
In models i) and ii) 14 week old WKY rats were commenced on high salt diet or high salt diet plus L-NAME. […] Myocardial VIP and myocardial fibrosis were quantitated. […]
Myocardial VIP concentrations and myocardial fibrosis were quantitiated.
(§1) VIP was measured by radioimmunoassay in known manner (see Davis R. E., Shelley S., Macdonald G. J. & Duggan K. A. (1992) The effects of a high sodium diet on the metabolism and secretion of vasoactive intestinal peptide in the rabbit. J. Physiol. 451:17-23. Duggan K. A., Ye V. Z. C., Jones D. M. Davis R. E. & Macdonald G. J. (1995) Effects of Endopeptidase 24.11 blockade on plasma and tissue concentrations of vasoactive intestinal peptide Clin. Sci. 89:267-271). […]

In another data set the test system is isolated rat heart. The following applies: isolated rat heart perfused with VIP, ischaemia then reperfusion; cited from earlier work.
The subject of data set [3] is WKY rats on high salt diet, high salt diet plus L-NAME, or with streptozotocin induced diabetes. Briefly: Regression of existing myocardial fibrosis after VIP infusion (Example 4). The data set is classed as in vivo, rat. Conditions: VIP 5 pmol/kg/min, 4 weeks, three models: high salt, streptozotocin diabetes (FIGS. 4 to 6). How it is done:
(§2) VIP was measured by radioimmunoassay in known manner (see Davis R. E., Shelley S., Macdonald G. J. & Duggan K. A. (1992) The effects of a high sodium diet on the metabolism and secretion of vasoactive intestinal peptide in the rabbit. J. Physiol. 451:17-23. Duggan K. A., Ye V. Z. C., Jones D. M. Davis R. E. & Macdonald G. J. (1995) Effects of Endopeptidase 24.11 blockade on plasma and tissue concentrations of vasoactive intestinal peptide Clin. Sci. 89:267-271). The degree of myocardial fibrosis was quantitated by two methods in known manner (refer Ye V Z C, Hodge G, Yong J L C & Duggan K A (2002) Early myocardial fibrosis is associated with depletion of vasoactive intestinal peptide in the heart Exp. Physiol 87:539-546 Ye V Z C, Hodge G, Yong J L C & Duggan K A (2003) Myocardial VIP and myocardial fibrosis induced by nitric oxide synthase inhibition in the rat Acta Physiol. Scand. 179:353-360. Ye V Z C, Hodge G, Yong J L C & Duggan K A (2004) Vasopeptidase inhibition reverses myocardial VIP depletion and decreases myocardial fibrosis in salt sensitive hypertension Europ. J. Pharmacol. 485:235-242). […]

In data set [4] the test system is WKY rats on high salt diet or high salt diet plus L-NAME. The data set can be described thus: Myocardial VIP content after four week VIP infusion (Example 4). The following applies: four week intravenous infusion of VIP vs vehicle; WKY high salt diet, or high salt diet and L-NAME (FIGS. 7A and 7B). The data set is classed as in vivo, rat. How it is done: FIG. 7: A—Myocardial VIP concentrations in WKY rats on a high salt diet after a four week intravenous infusion of VIP or vehicle control. B—Myocardial VIP concentrations in WKY rats on a high salt diet and L-NAME (10 mg/kg) in the drinking water after a four week intravenous infusion of VIP or vehicle control.
as §2, with “Europ.” for “Europ. J. Pharmacol. 485:235-242).”

In data set [5] the test system is WKY rats on low, intermediate, high salt diet or high salt diet plus L-NAME. The data set can be described thus: Acute VIP infusion: uptake of VIP by the myocardium (Examples 1 and 2). Conditions: VIP 10 pmol/kg/min for one hour, rat models with increasing degree of fibrosis. Format: in vivo. How it is done: In preliminary studies a series of acute infusion experiments have been conducted in animal models.
Fourteen week old WKY rats were randomised to low salt diet (0.008%), intermediate salt diet (2.2%), high salt diet (4.4%) or high salt diet plus L-NAME (10 mg/kg/day) in the drinking water for 4 weeks (n=16 rats per group). On the day of the experiment the rats were anaesthetised and venous and arterial cannulae inserted. After a one hour rest equilibration period the rats were randomised to vehicle control (Haemaccell, Aventis) or VIP (10 pmol/kg/min) infusion for one hour at an infusion rate of 0.017 ml/min. The hearts were then harvested, myocardial VIP concentrations were measured and myocardial fibrosis quantitated.
The difference between the mean myocardial VIP concentrations after VIP or control infusion is a measure of VIP uptake by the heart.
as §1

The subject of data set [6] is isolated trabeculae of human hearts. Conditions: human hearts of previously healthy individuals; cited from earlier work.

Consider `CC[C@H](C)[C@H](NC(=O)[C@H](CO)NC(=O)[C@H](CC(N)=O)NC(=O)[C@H](CC(C)C)NC(=O)[C@H](Cc1ccc(O)cc1)NC(=O)[C@H](CCCCN)NC(=O)[C@H](CCCCN)NC(=O)[C@@H](NC(=O)[C@H](C)NC(=O)[C@H](CCSC)NC(=O)[C@H](CCC(N)=O)NC(=O)[C@H](CCCCN)NC(=O)[C@H](CCCNC(=N)N)NC(=O)[C@H](CC(C)C)NC(=O)[C@H](CCCNC(=N)N)NC(=O)[C@@H](NC(=O)[C@H](Cc1ccc(O)cc1)NC(=O)[C@H](CC(N)=O)NC(=O)[C@H](CC(=O)O)NC(=O)[C@@H](NC(=O)[C@H](Cc1ccccc1)NC(=O)[C@@H](NC(=O)[C@H](C)NC(=O)[C@H](CC(=O)O)NC(=O)[C@H](CO)NC(=O)[C@@H](N)Cc1c[nH]cn1)C(C)C)[C@@H](C)O)[C@@H](C)O)C(C)C)C(=O)N[C@@H](CC(C)C)C(=O)N[C@@H](CC(N)=O)C(N)=O` [VIP], for which the “myocardial fibrosis index, treated rats compared to the control groups” value in data set [1] and in data set [2] was “significantly lower” in each case. In the data set with isolated rat heart, the “myocardial function (left ventricular functions, coronary flow, tissue injury)” value is “significant improvement of myocardial function”. Further, the “regression of existing myocardial fibrosis” value in data set [3] is “regression of myocardial fibrosis in the three models”. Further, in data set [4], the “myocardial content of VIP / uptake of exogenous VIP” value was “clear association between the degree of fibrosis and uptake of exogenous VIP”. Moreover, the “uptake of VIP by the heart from the plasma (difference between mean myocardial VIP concentrations after VIP or control infusion)” value in data set [5] is given as “As fibrosis worsens the amount of VIP taken up by the heart increases; also recorded: more avid with increasing degrees of fibrosis; also recorded: the higher the level of fibrosis, the greater the uptake of VIP by the heart; also recorded: found to increase as the degree of fibrosis increased”. Moreover, the “ionotropic effect in atria and ventricles” value in data set [6] is on record as “direct positive ionotropic effect”.
